ChEMBL document CHEMBL1123796, “New antitumor agents containing the anthracene nucleus” (1987)

What was measured:
Type in all cases: functional
RPMI-8226 [1] = assay: Effect on DNA synthesis was determined by incorporation of radioligand into 8226 human myeloma cells at a concentration of 0.3 ug/mL (*: >50% cell kill)
RPMI-8226 [2] = assay: Effect on DNA synthesis was determined by incorporation of radioligand into 8226 human myeloma cells at a concentration of 0.5 ug/mL. (*: >1 log cell kill)
RPMI-8226 [3] = assay: Effect on DNA synthesis was determined by incorporation of radioligand into 8226 human myeloma cells at a concentration of 1 ug/mL. (*: >1 log cell kill)
RPMI-8226 [4] = assay: Effect on protein synthesis was determined by incorporation of radioligand into 8226 human myeloma cells at a concentration of 0.5 ug/mL. (*: >1 log cell kill)
RPMI-8226 [5] = assay: Effect on RNA synthesis was determined by incorporation of radioligand into 8226 human myeloma cells at a concentration of 0.5 ug/mL. (*: >1 log cell kill)
RPMI-8226 [6] = assay: Effect on RNA synthesis was determined by incorporation of radioligand into 8226 human myeloma cells at a concentration of 10 ug/mL (*: >1 log cell kill)
RPMI-8226 [7] = assay: Effect on RNA synthesis was determined by incorporation of radioligand into 8226 human myeloma cells at a concentration of 0.01 ug/mL
L1210 [8] = assay: Antileukemic activity against L-1210 cells in mice at a dose of 60 mg/kg administered intraperitoneally after 1 day treatment; conditions: Mus musculus, L1210, ip, 24 h, route intraperitoneal
L1210 [9] = assay: Effect on protein synthesis was determined by incorporation of radioligand into L1210 murine leukemia at a concentration of 10 ug/mL (*: >1 log cell kill); conditions: Mus musculus
L1210 [10] = assay: Effect on DNA synthesis was determined by incorporation of radioligand into L1210 murine leukemia at a concentration of 1 ug/mL. (*: >1 log cell kill); conditions: Mus musculus
L1210 [11] = assay: Effect on protein synthesis was determined by incorporation of radioligand into L1210 murine leukemia at a concentration of 0.5 ug/mL. (*: >1 log cell kill); conditions: Mus musculus
L1210 [12] = assay: Effect on DNA synthesis was determined by incorporation of radioligand into L1210 murine leukemia at a concentration of 0.3 ug/mL (*: >50% cell kill); conditions: Mus musculus
L1210 [13] = assay: Effect on DNA synthesis was determined by incorporation of radioligand into L1210 murine leukemia at a concentration of 0.5 ug/mL. (*: >1 log cell kill); conditions: Mus musculus
L1210 [14] = assay: Effect on DNA synthesis was determined by incorporation of radioligand into L1210 murine leukemia at a concentration of 0.01 ug/mL; conditions: Mus musculus
L1210 [15] = assay: Effect on DNA synthesis was determined by incorporation of radioligand into L1210 murine leukemia at a concentration of 10 ug/mL (*: >1 log cell kill); conditions: Mus musculus
Mus musculus [16] = assay: Tested for high-dose toxicity in mice at a significant dose of 30 mg/kg administered intraperitoneally after 5 days of treatment; conditions: route intraperitoneal
Mus musculus [17] = assay: Tested for high-dose toxicity in mice at a significant dose of 45 mg/kg administered intraperitoneally after 5 days of treatment; conditions: route intraperitoneal
Mus musculus [18] = assay: Tested for high-dose toxicity in mice at a significant dose of 52.5 mg/kg administered intraperitoneally after 5 days of treatment; conditions: route intraperitoneal
Mus musculus [19] = assay: Tested for high-dose toxicity in mice at a significant dose of 70 mg/kg administered intraperitoneally after 5 days of treatment; conditions: route intraperitoneal
Mus musculus [20] = assay: Tested for high-dose toxicity in mice at a significant dose of 80 mg/kg administered intraperitoneally after 1 days of treatment; conditions: route intraperitoneal
Mus musculus [21] = assay: Tested for high-dose toxicity in mice at a significant dose of 80 mg/kg administered intraperitoneally after 5 days of treatment; conditions: route intraperitoneal
Mus musculus [22] = assay: Tested for high-dose toxicity in mice at a significant dose of 90 mg/kg administered intraperitoneally after 1 days of treatment; conditions: route intraperitoneal
Mus musculus [23] = assay: Tested for high-dose toxicity in mice at a significant dose of 90 mg/kg administered intraperitoneally after 5 days of treatment; conditions: route intraperitoneal
Mus musculus [24] = assay: Tested for percent average weekly weight change in mice at a significant dose of 80 mg/kg administered intraperitoneally; conditions: route intraperitoneal
Mus musculus [25] = assay: Tested for skin toxicity in BALB/c mice administered intraintradermally and involved concentric circular areas of ulceration
Mus musculus [26] = assay: Tested for skin toxicity in BALB/c mice at a significant dose of 0.25 mg/kg administered intraintradermally and involved concentric circular areas of ulceration
Mus musculus [27] = assay: Tested for skin toxicity in BALB/c mice at a significant dose of 0.75 mg/kg administered intraintradermally and involved concentric circular areas of erythema
Mus musculus [28] = assay: Tested for skin toxicity in BALB/c mice at a significant dose of 2.00 mg/kg administered intraintradermally and involved concentric circular areas of erythema
Mus musculus [29] = assay: Tested for skin toxicity in BALB/c mice at a significant dose of 2.00 mg/kg administered intraintradermally and involved concentric circular areas of ulceration
Mus musculus [30] = assay: Tested for skin toxicity in BALB/c mice at a significant dose of 2.5 mg/kg administered intraintradermally and involved concentric circular areas of erythema
Mus musculus [31] = assay: Tested for skin toxicity in BALB/c mice at a significant dose of 2.5 mg/kg administered intraintradermally and involved concentric circular areas of ulceration
Mus musculus [32] = assay: Tested for percent average weekly weight change in mice at a significant dose of 60 mg/kg administered intraperitoneally after 5 days of treatment; conditions: route intraperitoneal
Mus musculus [33] = assay: Tested for percent average weekly weight change in mice at a significant dose of 80 mg/kg administered intraperitoneally after 5 days of treatment; conditions: route intraperitoneal
Mus musculus [34] = assay: Tested for percent average weekly weight change in mice at a significant dose of 90 mg/kg administered intraperitoneally after 1 days of treatment; conditions: route intraperitoneal
Mus musculus [35] = assay: Tested for percent average weekly weight change in mice at a significant dose of 90 mg/kg administered intraperitoneally after 5 days of treatment; conditions: route intraperitoneal
P388 [36] = assay: Antileukemic activity against P-388 in mice at a dose of 90 mg/kg administered intraperitoneally after 1 day treatment; conditions: Mus musculus, P388, ip, 24 h, route intraperitoneal
P388 [37] = assay: Antileukemic activity against P-388 in mice at a dose of 30 mg/kg administered intraperitoneally after 5 day treatment; conditions: Mus musculus, P388, ip, 120 h, route intraperitoneal
P388 [38] = assay: Antileukemic activity against P-388 in mice at a dose of 37.5 mg/kg administered intraperitoneally after 5 day treatment; conditions: Mus musculus, P388, ip, 120 h, route intraperitoneal
P388 [39] = assay: Antileukemic activity against P-388 in mice at a dose of 60 mg/kg administered intraperitoneally after 1 day treatment; conditions: Mus musculus, P388, ip, 24 h, route intraperitoneal
WiDr = assay: Tested in vitro for inhibitory activity of human tumor cell growth against WIDR colon tumor, by using clonogenic assays.; conditions: read-out: ID50 (the source's name)

CN(C)CCNCc1c2ccccc2c(CNCCN(C)C)c2ccccc12
inhibition at 0.3 µg/mL (RPMI-8226 [1]): 8.4% | inhibition at 0.5 µg/mL (RPMI-8226 [2]): 24.3% | inhibition at 1 µg/mL (RPMI-8226 [3]): 21.1% | inhibition at 0.5 µg/mL (RPMI-8226 [4]): 63.5% | inhibition at 0.5 µg/mL (RPMI-8226 [5]): 7.3% | inhibition at 10 µg/mL (RPMI-8226 [6]): 91.4% | inhibition at 0.01 µg/mL (RPMI-8226 [7]): 0% | ILS at 60 mg/kg (L1210 [8]): 17% | inhibition at 10 µg/mL (L1210 [9]): 87.3% | inhibition at 1 µg/mL (L1210 [10]): 48.7% | inhibition at 0.5 µg/mL (L1210 [11]): 21.8% | inhibition at 0.3 µg/mL (L1210 [12]): 0% | inhibition at 0.5 µg/mL (L1210 [13]): 5.8% | inhibition at 0.01 µg/mL (L1210 [14]): 0% | inhibition at 10 µg/mL (L1210 [15]): 75.7% | Lethality (Mus musculus [16]): 0% | Lethality (Mus musculus [17]): 30% | Median day of death (Mus musculus [17]): 2 | Lethality (Mus musculus [18]): 100% | Median day of death (Mus musculus [18]): 4 | Lethality (Mus musculus [19]): 10% | Median day of death (Mus musculus [19]): 0 | Lethality (Mus musculus [20]): 10% | Median day of death (Mus musculus [20]): 12 | Lethality (Mus musculus [21]): 20% | Median day of death (Mus musculus [21]): 4 | Lethality (Mus musculus [22]): 20% | Median day of death (Mus musculus [22]): 10 | Lethality (Mus musculus [23]): 20% | Median day of death (Mus musculus [23]): 3 | Lethality (Mus musculus [24]): -3% | Extent of skin lesions (Mus musculus [25]): 1.9 cm**2 | Extent of skin lesions (Mus musculus [26]): 0.2 cm**2 | Extent of skin lesions (Mus musculus [27]): 1.3 cm**2 | Extent of skin lesions (Mus musculus [28]): 3.1 cm**2 | Extent of skin lesions (Mus musculus [29]): 2.6 cm**2 | Extent of skin lesions (Mus musculus [30]): 5 cm**2 | Extent of skin lesions (Mus musculus [31]): 3.8 cm**2 | Average weekly weight change (Mus musculus [32]): 0% | Average weekly weight change (Mus musculus [33]): -10% | Average weekly weight change (Mus musculus [34]): -5% | Average weekly weight change (Mus musculus [35]): -11% | ILS at 90 mg/kg (P388 [36]): -10% | ILS at 30 mg/kg (P388 [37]): 0% | ILS at 37.5 mg/kg (P388 [38]): 0% | ILS at 60 mg/kg (P388 [39]): 11% | IC50 (WiDr): 0.18 µM
